How the values were obtained:
LLC1 cells = experiment: LLC1 lung tumor formation after tail vein injection (experimental metastasis); assay type: in vivo, mouse; settings: 1×10^6 LLC1 cells with MLK inhibitor or solvent in 200 ul PBS into tail vein of WT mice; lung isolated after 20 days
Description: 1×10^6 LLC1 cells, with either MLK inhibitor (URMC-099) or solvent in 200 ul of sterile PBS were injected into the tail vein of WT mice (12-16 week of age). After 20 days of injection Lung was isolated (A) and tumor number were counted (Control—White bar; MLK inhibitor—Black bar) (B).
We also tested the role of MLK inhibitor in Lung tumor formation. […] After 20 days of injection Lung was isolated and tumor number were counted (Control—White bar; MLK inhibitor—Black bar).

primary MLEC cells = experiment: qPCR of pro-angiogenic genes in primary MLEC after miR146a mimic transfection, 90 minutes hypoxia; assay type: cell-based, mouse; settings: mimic transfected 48 hours, 1% O2, versus control
Description: Either control or miR146a mimic were transfected into primary MLEC cells for 48 hours. Cells were incubated for 90 minutes in hypoxia chamber in the presence of 1% O2. RNA was isolated and qPCR was performed for genes as noted.
(§1) Total RNA was extracted from cells and tissues with the RNeasy Mini Kit (Qiagen) or TRIzol reagent (Invitrogen), and 1 μg of total RNA was reverse transcribed with oligo(dT) primers for cDNA synthesis. The expression of mRNA was examined by quantitative PCR analysis using a QuantStudio™ 6 Flex Real-Time PCR System (Applied Biosystems). Taqman© assays were used to quantitate Pgf, Adam8, Mmp9, Angptl4, Hprt (Mm00446968—m1) and Gapdh (4352339E-0904021) mRNA (Applied Biosystems). The 2^−ΔΔCT method is used for relative quantification of gene as described elsewhere^5,6. reference genes of Hprt and Gapdh have been used to normalize the PCRs in each sample.

[1] = test system: mouse lung endothelial cell (MLEC); experiment: qRT-PCR of angiogenesis related genes in WT MLEC after miR146a mimic, 4 hours post hypoxia; assay type: cell-based; settings: mimic 48 hours, versus control
Description: (A-D) mRNA was isolated from WT mouse lung endothelial cell (MLEC) treated either with control or miR146a mimic for 48 hours and qRT-PCR was performed for different angiogenesis related genes after 4 hours post hypoxia
Quiescent monolayers of WT and Mlk2/3−/− primary endothelial cell MLECs were exposed to normoxia (21% O2) or hypoxia (1% O2) for 0-24 h in a hypoxia chamber. After exposure cells were immediately harvested and examined for expression of genes by qPCR or immunoblots.
as §1

Compound	LLC1 tumor formation in vivo (lung tumor number) (LLC1 cells)	expression of pro-angiogenic factors (VEGF, Angptl4, Angpt2, MMP9) by qPCR (primary MLEC cells)	expression of pro-angiogenic factors (VEGF, Angptl4, Angpt2, MMP9) by qPCR (primary MLEC cells; listed as miR146a)	angiogenesis related gene expression by qRT-PCR [1]
CN1CCN(Cc2ccc(-c3cnc4[nH]cc(-c5ccc6[nH]ccc6c5)c4c3)cc2)CC1 [URMC-099]	suppressed LLC1 tumor formation in vivo			
ugagaacugaauuccauggguu (SEQ ID NO:3) [miR146a mimic]		down-regulated	suppressed the pro-angiogenic factors	mimic the MLK deficient phenotype

— patent publication US12083143B2, “MLK-regulated microRNAs in angiogenesis and tumor development” (University of Massachusetts, priority 2018, dated 2024)
